Assay results: patent publication US20240197655A1 (REPUBLIC OF KOREA(MASAN NATIONAL TUBERCULOSIS HOSPITAL), priority 2021, published 2024)
Converted amounts (≈) assume the structure as drawn. Where a name gives a salt, the structure may show the parent alone.

Legend:
THP-1 cells [1] = experiment: WST-8 cell viability and LDH cytotoxicity assay; assay type: cell-based, human; conditions: THP-1, 24 hours, FIG. 7
Method: (§1) THP-1 (ATCC TIB-202) and HCT-8 (ATCC CCL-244) cells were measured in regards to cell viability and cytotoxicity of CC using a WST-8 cell viability assay kit (MediFab, S. Korea) and a CytoTox 96® non-radioactive cytotoxicity assay kit (Promega, Madison, WI, USA), respectively. Differentiated THP-1 cells (1.0×10^5 cells/well) and HCT-8 cells (2.0×10^4 cells/well) were placed in 96-well plates and incubated at 37° C. for 24 hours. Here, CC was added to the cells at different concentrations. For cell viability assay, 10 μL of the reagent (10% medium volume) was added to each well, followed by incubation for 4 hours. The resulting color was measured at 450 nm. For LDH cytotoxicity assay, 50 μL of a reagent for LDH detection was added to each well, and incubation was performed in the dark for 30 minutes. The resulting color was measured at 490 nm. In this regard, the cells treated with 1% Triton™ X-100 were used as a positive control, and those treated with DMSO were all tested negative in both experiments.

THP-1 cells [2] = test system: THP-1 cells
Method: (§2) THP-1 cells were treated with phorbol 12-myristate 13-acetate (PMA; Sigma-Aldrich, USA) at a final concentration of 50 nM for 40 hours. Infection with M. abscessus containing pTEC15 green fluorescence or luciferase was performed at 37° C. in the presence of 5% CO2 at a multiplicity of […] (MOI) of 2:1 for 3 hours. After extensive washing with PBS, the cells were incubated in a culture medium containing […] of gentamicin for 30 minutes and washed again with PBS. […] Macrophages were stained with SYTO 60 (Invitrogen, USA) dye at a final concentration of 5 μM at 37° C. in a 5% CO2 atmosphere for 30 minutes. On the day 4, luminescence was measured with a Synergy H1 microplate reader (Bio-Tek, USA). The fluorescence microscopic images of living cells were captured with a Lionheart™ FX automated microscope (BIO-Tek, USA). The Gen5™ 3.05 software object feature was available for identification of the cells in the imaging field.
(§3) The use of a double read assay results in dose-response curves for both inhibition for M. abscessus and cytotoxicity to THP-1 cells as determined in a same experiment. […] The cytotoxicity was determined using a SYTO 60 probe.

[3] = test system: human colonic epithelial cells (HCT-8); experiment: WST-8 cell viability and LDH cytotoxicity assay; assay type: cell-based; conditions: HCT-8, 24 hours, FIG. 7
Method: as §1

[4] = test system: clarithromycin-resistant M. abscessus mutants (M. abscessus CLR-R); experiment: REMA dose-response against clarithromycin-resistant mutants; assay type: cell-based, Mycobacterium abscessus; conditions: mutant produced in presence of 100 mg/L CLR, FIG. 3
Method: (§4) Experiments were performed in triplicates.
It was also tested to determine whether CC inhibits the growth of the drug-resistant strains produced in the present invention in the presence of high concentration (100 mg/L) CLR used for therapy against M. abscessus. […] Accordingly, CC is considered as an active drug for the treatment of CLR-resistant M. abscessus.

[5] = test system: M. abscessus (lux) in THP-1 cells; assay type: cell-based, Mycobacterium abscessus; conditions: THP-1 infection, data not shown
Method: as §2, §3

biofilm-forming microbes = conditions: Munoz-Egea et al.; cited from earlier work
[6] = test system: M. abscessus (ATCC 19997) under anaerobic conditions; experiment: Resazurin dose-response under anaerobic non-replicating culture; assay type: cell-based, Mycobacterium abscessus
Method: In order to determine the antibiotic ability against M. abscessus (ATCC 19997) under anaerobic conditions, a bacterial culture (5×10^6 bacteria/mL) was inoculated into 5 mL of 7H9 broth (BD, 271310) supplemented with 10% OADC. The bacterial culture was placed in an anaerobic jar (BD BBLIM GasPAK™ Jar; Franklin Lakes, NJ, USA). Here, a BD BBLIM GasPAK™ anaerobic indicator (methylene blue for monitoring oxygen depletion) was used. The bacteria were cultured in cation-adjusted Mueller-Hinton broth (MH; Sigma-Aldrich, 90922) for drug susceptibility testing.
as §4
A comparison was made between the growth rates under aerobic, anaerobic and restored aerobic conditions in a same culture medium.

[7] = test system: M. abscessus (ATCC 19997); experiment: Resazurin (REMA) broth microdilution dose-response, aerobic culture; assay type: cell-based, Mycobacterium abscessus
Method: Three strains of M. abscessus (ATCC 19997), M. avium (ATCC 25291) and M. intracellulare (ATCC 13950) were cultured at 37° C. in Middlebrook 7H9 broth (BD, 27130) supplemented with 10% OADC (BD, 212240), 0.5% glycerol and 0.05% Tween-80.
The minimum inhibitory concentration (MIC) was determined according to the guideline by the CLSI (Clinical & Laboratory Standards Institute). The CLSI broth microdilution method recommended by MH was used with an inoculum having an OD of 0.001/ml in the exponential phase of growth.
Then, incubation was carried out at 37° C. for 3 hours, followed by adding 40 mL of 0.025% resazurin. After incubation overnight, the fluorescence of resorufin (metabolite resazurin) was measured with a Synergy H1 Hybrid Multi-Mode Reader (Bio-Tek, VT, USA). IC50 values were calculated from raw fluorescence data using Prism 5.0 software (GraphPad Inc., La Jolla, CA, USA). Experiments were performed in triplicates.

[8] = test system: M. abscessus (ATCC 19997); conditions: known value used for selecting resistant mutants; cited from earlier work
[9] = test system: M. abscessus in biofilm culture; experiment: Biofilm assay (Calgary Biofilm Device, MBEC Assay); assay type: cell-based, Mycobacterium abscessus
Method: The first biofilm assay system was the Calgary Biofilm Device used by Bardouniotis et al. to evaluate the bactericidal activity or minimum biofilm eradication concentration (MBEC) of a biocidal active substance against Mycobacterium phlei. In the present invention, MBEC Assay® (Innovotech, Edmonton, Canada) for MBEC measurement was used. Biofilm formation was performed as follows. […] Then, the 96-well microliter plate was covered with a 96-peg lid and incubated for 4 days. After washing, the bacteria remaining on the biofilms were removed from the wells by ultrasonication in the medium. Finally, after incubation, the adherent bacteria remaining on the biofilms with or without antibiotics were quantified with resazurin.

SMILES	effect on cell viability (THP-1 cells [1])	cytotoxicity to THP-1 cells (THP-1 cells [2])	effect on cell viability [3]	resistance of produced mutant to CLR [4]	effect on intracellular bacterial replication [5]	MBEC relative to MIC (biofilm-forming microbes)	IC50 ([6]; Mycobacteroides abscessus, ATCC19997, anaerobic culture conditions, FIG. 4) [µg/mL]	shift of the IC50 value, anaerobic versus aerobic ([6]; anaerobic vs aerobic culture) [fold]	general MIC [7] [µg]	IC50 ([7]; Mycobacteroides abscessus, ATCC19997, aerobic culture conditions, FIG. 4) [µg/mL]	known MIC value [8] [mg/L]	MBEC relative to general MIC ([9]; MBEC vs MIC)	IC50 ([9]; Mycobacteroides abscessus, biofilm culture, FIG. 4) [µg/mL]	MBEC for M. abscessus ([9]; biofilm)
CCN(CC)CCOc1ccc(C(=C(Cl)c2ccccc2)c2ccccc2)cc1 [CC, clomiphene citrate]	no harm on the viability	without cytotoxicity	no harm on the viability	–	–	–	–	–	–	–	–	–	–	–
CC[C@H]1OC(=O)[C@H](C)[C@@H](O[C@H]2C[C@@](C)(OC)[C@@H](O)[C@H](C)O2)[C@H](C)[C@@H](O[C@@H]2O[C@H](C)C[C@H](N(C)C)[C@H]2O)[C@](C)(OC)C[C@@H](C)C(=O)[C@H](C)[C@@H](O)[C@]1(C)O [CLR, clarithromycin]	–	–	–	high drug resistance	prevented bacterial replication	100,000 fold	0.0778 (≈ 0.104 µM)	2	0.46	0.046 (≈ 0.0615 µM)	0.1	2,000 fold	> 100	above 100 μg
